Laboratory results: PubChem BioAssay (NCI)
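Protocol summary: plate cells (96-well), add compound at 5 concentrations, incubate 48 h, interpolate endpoints linearly. At the GI50, growth is halved. TGI: concentration producing complete growth inhibition.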

Columns and labels:
Assay in all cases: NCI tumour cell line growth inhibition, 48 h
SF-268 CNS = test system: SF-268 CNS
KM12 colon = test system: KM12 colon
SK-MEL-2 melanoma = test system: SK-MEL-2 melanoma
UACC-62 melanoma = test system: UACC-62 melanoma
NCI-H522 lung = test system: NCI-H522 lung
UACC-257 melanoma = test system: UACC-257 melanoma
A549 NSCLC = test system: A549 NSCLC
NCI-H23 lung = test system: NCI-H23 lung
MALME-3M melanoma = test system: MALME-3M melanoma
SF-295 CNS = test system: SF-295 CNS

Row | SMILES | GI50 (SF-268 CNS) [µM] | TGI (SF-268 CNS) [µM] | GI50 (KM12 colon) [µM] | TGI (KM12 colon) [µM] | GI50 (SK-MEL-2 melanoma) [µM] | TGI (SK-MEL-2 melanoma) [µM] | GI50 (UACC-62 melanoma) [nM] | TGI (UACC-62 melanoma) [µM] | TGI (NCI-H522 lung) [µM] | GI50 (UACC-257 melanoma) [µM] | TGI (UACC-257 melanoma) [µM] | GI50 (A549 NSCLC) [µM] | TGI (A549 NSCLC) [µM] | GI50 (NCI-H23 lung) [µM] | TGI (NCI-H23 lung) [µM] | GI50 (MALME-3M melanoma) [µM] | TGI (MALME-3M melanoma) [µM] | GI50 (SF-295 CNS) [µM] | TGI (SF-295 CNS) [µM] | GI50 (NCI-H522 lung) [nM]
1 | O=C(Nc1ccccc1C(F)(F)F)c1cccc(NC2=C(Cl)C(=O)N(Cc3ccccc3)C2=O)c1 | 9.32 | > 25.3 | 19.2 | > 85.2 | 14.9 | 79 | 9460 | 52.7 | 0.0672 | 11.2 | 70.1 | 28.2 | > 77.8 | 19.2 | 62.5 | 42.6 | > 100 | > 19.9 | > 45.5 | 
2 | Cc1ccc(C(=O)c2oc3ccc4c(C)cc(=O)oc4c3c2C)cc1 | 10.4 | 98.8 | 63.3 | > 100 | 35 | > 100 | 2660 | > 100 | 55.2 | 35.9 | > 100 | 4.97 | > 100 | 27.3 | > 100 | 25.7 | > 100 | 2.19 | 30.2 | 9120
3 | COC(=O)c1c(-c2ccccc2)cc2c3cc(-c4ccccc4)c(C(=O)OC)n3c3ccccc3n12 |  | > 100 |  | > 100 |  | > 100 |  | > 100 | > 100 |  | > 100 |  | > 100 |  | > 100 |  | > 100 |  | > 100 | 
4 | CCCCC#COP(=O)(OCC)OCC |  | > 100 |  | > 100 |  | > 100 |  | > 100 | > 100 |  | > 100 |  | > 100 |  | > 100 |  | > 100 |  | > 100 | 
5 | COc1ccc2c(c1)C(=O)CC(N)C2 (centres undefined) |  | > 100 |  | > 100 |  | > 100 |  | > 100 | > 100 |  | > 100 |  | > 100 |  | > 100 |  | > 100 |  | > 100 | 
6 | COc1cc2nc(-c3ccc(C(F)(F)F)cc3)cc(OCCCN3CCOCC3)c2cc1OC | 5.7 | 27.9 | 3.42 | 22 | 3.32 | 13.1 | 628 | 3.9 | 15.3 | 1.67 | 5.68 | 1.04 | 20 | 2.36 | 12 | 1.38 | 3.77 | 0.349 | 1.68 | 2520
7 | O=C1c2cc(Br)ccc2-c2c1c1ccc([N+](=O)[O-])cc1c(=O)n2CCCCl | < 0.0258 | 35.5 | 0.5 | > 41.6 | 10.8 | 37.3 | 26.4 | 1.08 | 5.38 | 0.287 | 2.85 | 0.114 | > 33.9 | 1.54 | 8.04 | 0.25 | 7.74 | < 0.0479 | 3.56 | 63.6
8 | CC(C)=CC(C(O)c1ccccc1)S(=O)(=O)c1nccn1C (centres undefined) |  | > 100 |  | > 100 |  | > 100 |  | > 100 | > 100 |  | > 100 |  | > 100 |  | > 100 |  | > 100 |  | > 100 | 
9 | NC(N)=N/N=C(/c1nc2ccc([N+](=O)[O-])cc2[nH]c1=O)C(O)c1ccco1 (centres undefined) |  | > 100 |  | > 100 |  | > 100 |  | > 100 | > 100 |  | > 100 |  | > 100 |  | > 100 |  | > 100 |  | > 100 | 
10 | O=c1cc(-c2ccccc2)[nH]c2cc(Cl)cc(Cl)c12 |  | > 100 |  | > 100 |  | > 100 |  | > 100 | > 100 |  | > 100 |  | > 100 |  | > 100 |  | > 100 |  | > 100 | 
11 | C=CCc1cc2cccc(OC)c2oc1=O |  | > 100 |  | > 100 |  | > 100 |  | > 100 | > 100 |  | > 100 |  | > 100 |  | > 100 |  | > 100 |  | > 100 | 
12 | CCOC(=O)[C@@H](C)C[C@H](Cc1ccccc1)NC(=O)c1csc([C@@H](C[C@H](C(C)C)N(C)C(=O)[C@@H](NC(=O)[C@H]2C[C@H](O[Si](C)(C)C(C)(C)C)CCN2C)C(C)C)OC(C)=O)n1 | 0.441 | > 8.33 | 0.241 | > 8.33 | 0.263 | > 7.21 | 54.5 | 3.58 | 1.03 | 0.789 | > 8.33 | 0.379 | > 8.33 | 0.333 | > 8.33 | 0.215 | > 8.33 | 0.249 | 3.41 | 128
13 | O=C1C(Br)=C[C@H]2C3C=CC(Br)(C3=O)[C@@H]12 (some centres undefined) |  | 43.6 |  | 24.4 |  | 28.4 |  | 14.9 | 18.2 |  | 24.8 |  | 76.9 |  | 25 |  | 26.2 |  | 51 | 
14 | S=C(Nc1ccc(-c2nc3ccccc3[nH]2)cc1)NC1CCCCC1 | 33.1 |  | 22.5 | 63.6 | 36.5 |  | 15300 |  | 35.3 | 26.6 | 57.1 | 40.3 |  | 23.2 | 68.3 |  | 51.9 | 7.06 | 30.3 | 12900
15 | COc1cc(OC2OC(C)C(O)C(O)C2O)cc2oc(-c3ccc(O)cc3)c(CC=C(C)C)c(=O)c12 (centres undefined) | 15.4 | 32.5 | 12.2 | 31 | 35.9 | > 100 | 12800 | 31.9 | 39.8 | 29.6 | 68.4 | 22.8 | 68.5 | 18.6 | 47.4 | 15.5 | 55.5 | 33.9 | > 100 | 13000
16 | C=CC(=O)N1CCCC(n2nc(-c3ccc(Oc4ccccc4)cc3)c3c(N)ncnc32)C1 (centres undefined) | 3.12 | 17.2 | 8.73 | 22 | 16 | 31.6 | 2360 | 14.6 | 9.31 | 6.82 | 20.5 | 11.9 | 26 | 12.1 | 28.7 | 12.4 | 29.3 | 7.71 | 23.8 | 57.8
